# pIC50: −log10 of the molar value.
# Biological target: T1, PIP4K2C (Homo sapiens, UniProt Q8TBX8)
# T1 sequence (Q8TBX8 1-421): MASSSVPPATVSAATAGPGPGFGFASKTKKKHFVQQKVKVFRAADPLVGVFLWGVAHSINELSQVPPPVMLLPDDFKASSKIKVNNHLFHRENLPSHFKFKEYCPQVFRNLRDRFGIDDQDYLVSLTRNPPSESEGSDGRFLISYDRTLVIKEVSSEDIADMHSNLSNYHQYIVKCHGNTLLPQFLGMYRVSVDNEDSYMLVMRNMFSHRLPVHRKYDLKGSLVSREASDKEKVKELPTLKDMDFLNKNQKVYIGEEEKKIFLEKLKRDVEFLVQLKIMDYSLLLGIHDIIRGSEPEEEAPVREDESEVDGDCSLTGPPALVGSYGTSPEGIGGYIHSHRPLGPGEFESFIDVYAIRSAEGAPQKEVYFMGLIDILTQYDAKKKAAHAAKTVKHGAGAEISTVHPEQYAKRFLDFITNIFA
# Test: Enzyme Binding Assay (KINOMEscan): active site-directed competition binding to an immobilized ligand
# Design: purchased Eurofins DiscoverX, San Diego, CA 87-0007-1094
# Settings: 11-point dose response, duplicate, top concentration 5 micromolar; read-out: Pip4k2c Kd: IC50
# In short: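 Active site-directed competition binding against an immobilized ligand. 11-point dose-response in duplicate, top concentration 5 micromolar; IC50 from a Hill equation fitted by the Levenberg-Marquardt algorithm.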
row,SMILES,pIC50
1,"CNC(=O)[C@H]1CC[C@H](Nc2ncc(Cl)c(-c3cnn(-c4cc[nH]c(=O)c4)c3)n2)CC1 [Compound 165, trans-(1r,4r)-4-((5-chloro-4-(1-(2-oxo-1,2-dihydropyridin-4-yl)-1H-pyrazol-4-yl)pyrimidin-2-yl)amino)-N-methylcyclohexane-1-carboxamide]",6.00 to 6.30
2,"CNC(=O)[C@H]1CC[C@@H](Nc2ncc(Cl)c(-c3cnn(-c4cccc(=O)[nH]4)c3)n2)CC1 [Compound 167, cis-(1s,4s)-4-((5-chloro-4-(1-(6-oxo-1,6-dihydropyridin-2-yl)-1H-pyrazol-4-yl)pyrimidin-2-yl)amino)-N-methylcyclohexane-1-carboxamide]",6.00 to 6.30
3,"CC(=O)N[C@H]1CC[C@H](Nc2ncc(F)c(N3CCOCC3)n2)CC1 [Compound 182, trans-N-(4-((5-fluoro-4-morpholinopyrimidin-2-yl)amino)cyclohexyl)acetamide]",5.30 to 6.00
4,"CC(=O)N1CCC(Nc2ncc(F)c(-c3cccc(-c4cc[nH]c(=O)c4)c3)n2)CC1 [Compound 187, 4-(3-(2-((1-acetylpiperidin-4-yl)amino)-5-fluoropyrimidin-4-yl)phenyl)pyridin-2(1H)-one]",> 6.30
5,"CC(=O)N[C@H]1CC[C@H](Nc2ncc(F)c(-c3cccc(-c4cc[nH]c(=O)c4)c3)n2)CC1 [Compound 188, trans-N-(4-((5-fluoro-4-(3-(2-oxo-1,2-dihydropyridin-4-yl)phenyl)pyrimidin-2-yl)amino)cyclohexyl)acetamide]",> 6.30
6,"CC(=O)N1CCC(Nc2ncc(F)c(N3CCCC(n4ccccc4=O)C3)n2)CC1 (centres unmarked) [Compound 189, 1-(1-(2-((1-acetylpiperidin-4-yl)amino)-5-fluoropyrimidin-4-yl)piperidin-3-yl)pyridin-2(1H)-one]",5.30 to 6.00
7,"CC(=O)N[C@H]1CC[C@H](Nc2ncc(Cl)c(-c3cc(C4CC4)[nH]n3)n2)CC1 [Compound 190, trans-N-((1r,4r)-4-((5-chloro-4-(5-cyclopropyl-1H-pyrazol-3-yl)pyrimidin-2-yl)amino)cyclohexyl)acetamide]",> 6.30
8,"CNC(=O)[C@H]1CC[C@@H](Nc2ncc(Cl)c(-c3cc(C4CC4)[nH]n3)n2)CC1 [Compound 191, cis-(1s,4s)-4-((5-chloro-4-(5-cyclopropyl-1H-pyrazol-3-yl)pyrimidin-2-yl)amino)-N-methylcyclohexane-1-carboxamide]",> 6.30
9,"CC(=O)N1CCC[C@H](Nc2ncc(Cl)c(-c3cc(C4CC4)[nH]n3)n2)C1 [Compound 192, (S)-1-(3-((5-chloro-4-(5-cyclopropyl-1H-pyrazol-3-yl)pyrimidin-2-yl)amino)piperidin-1-yl)ethan-1-one]",> 6.30
10,"CNC(=O)[C@H]1C[C@@H](Nc2ncc(Cl)c(-c3cnn(-c4ccc[nH]c4=O)c3)n2)C1 [Compound 193, cis-3-((5-chloro-4-(1-(2-oxo-1,2-dihydropyridin-3-yl)-1H-pyrazol-4-yl)pyrimidin-2-yl)amino)-N-methylcyclobutane-1-carboxamide]",> 6.30
11,"CC(=O)N1CCC[C@H](Nc2ncc(Cl)c(-c3cccc(-c4ccc(F)cc4)n3)n2)C1 [Compound 194, (S)-1-(3-((5-chloro-4-(6-(4-fluorophenyl)pyridin-2-yl)pyrimidin-2-yl)amino)piperidin-1-yl)ethan-1-one]",5.30 to 6.00
12,"NC(=O)[C@H]1CC[C@H](Nc2ncc(F)c(-c3cccc(-c4cc[nH]c(=O)c4)c3)n2)CC1 [Compound 195, trans-4-((5-fluoro-4-(3-(2-oxo-1,2-dihydropyridin-4-yl)phenyl)pyrimidin-2-yl)amino)cyclohexane-1-carboxamide]",> 6.30
13,"CC(=O)N1CCC(Nc2ncc(F)c(N3CCCC(c4ccc[nH]c4=O)C3)n2)CC1 (centres unmarked) [Compound 196, 3-[1-[2-[(1-acetyl-4-piperidyl)amino]-5-fluoro-pyrimidin-4-yl]-3-piperidyl]-1H-pyridin-2-one]",> 6.30
14,"CC(=O)N[C@H]1CC[C@H](Nc2ncc(F)c(N3CCC[C@@H](C(=O)NC4CC4)C3)n2)CC1 [Compound 197, trans-(R)-1-(2-((4-acetamidocyclohexyl)amino)-5-fluoropyrimidin-4-yl)-N-cyclopropylpiperidine-3-carboxamide]",5.30 to 6.00
15,"CC(=O)N[C@H]1CC[C@H](Nc2ncc(F)c(N3CCC[C@H](C(=O)NC4CC4)C3)n2)CC1 [Compound 198, trans-(S)-1-(2-((4-acetamidocyclohexyl)amino)-5-fluoropyrimidin-4-yl)-N-cyclopropylpiperidine-3-carboxamide]",5.30 to 6.00
16,"CC(=O)N1CCC(Nc2ncc(F)c(N3CCCC(c4ccc(=O)[nH]c4)C3)n2)CC1 (centres unmarked) [Compound 199, 5-(1-(2-((1-acetylpiperidin-4-yl)amino)-5-fluoropyrimidin-4-yl)piperidin-3-yl)pyridin-2(1H)-one]",6.00 to 6.30
17,"CC(=O)N1CCC(Nc2ncc(F)c(-c3cccc(-c4ccc(=O)[nH]c4)c3)n2)CC1 [Compound 202, 5-(3-(2-((1-acetylpiperidin-4-yl)amino)-5-fluoropyrimidin-4-yl)phenyl)pyridin-2(1H)-one]",> 6.30
18,"CC(=O)N[C@H]1CC[C@H](Nc2ncc(F)c(-c3cccc(-c4ccc(=O)[nH]c4)c3)n2)CC1 [Compound 203, trans-N-(4-((5-fluoro-4-(3-(6-oxo-1,6-dihydropyridin-3-yl)phenyl)pyrimidin-2-yl)amino)cyclohexyl)acetamide]",> 6.30
19,"NC(=O)[C@@H]1CCC[C@H](Nc2ncc(F)c(-c3cccc(-c4ccc[nH]c4=O)c3)n2)C1 [Compound 204, (1R,3S)-3-((5-fluoro-4-(3-(2-oxo-1,2-dihydropyridin-3-yl)phenyl)pyrimidin-2-yl)amino)cyclohexane-1-carboxamide]",> 6.30
20,"CC(=O)N1CCC(Nc2ncc(F)c(N3CCOCC3)n2)CC1 [Compound 205, 1-(4-((5-fluoro-4-morpholinopyrimidin-2-yl)amino)piperidin-1-yl)ethan-1-one]",6.00 to 6.30
21,"CC(=O)N1CCC(Nc2ncc(F)c(-c3cccc(N4CCOCC4=O)c3)n2)CC1 [Compound 206, 4-(3-(2-((1-acetylpiperidin-4-yl)amino)-5-fluoropyrimidin-4-yl)phenyl)morpholin-3-one]",> 6.30

# Other lines, results leading:
row,pIC50,SMILES
1,> 6.30,"CNC(=O)[C@H]1C[C@@H](Nc2ncc(Cl)c(-c3cnn(-c4ccc(=O)[nH]c4)c3)n2)C1 [Compound 164, cis-3-((5-chloro-4-(1-(6-oxo-1,6-dihydropyridin-3-yl)-1H-pyrazol-4-yl)pyrimidin-2-yl)amino)-N-methylcyclobutane-1-carboxamide]"
2,> 6.30,"CNC(=O)[C@H]1C[C@H](Nc2ncc(Cl)c(-c3cnn(-c4ccc[nH]c4=O)c3)n2)C1 [Compound 166, trans-(1r,3r)-3-((5-chloro-4-(1-(2-oxo-1,2-dihydropyridin-3-yl)-1H-pyrazol-4-yl)pyrimidin-2-yl)amino)-N-methylcyclobutane-1-carboxamide]"
3,> 6.30,"CC(=O)N1CCC(Nc2ncc(F)c(-c3cccc(C4COC4)c3)n2)CC1 [Compound 169, 1-(4-((5-fluoro-4-(3-(oxetan-3-yl)phenyl)pyrimidin-2-yl)amino)piperidin-1-yl)ethan-1-one]"
4,> 6.30,"CC(=O)N1CCC(Nc2ncc(F)c(-c3cccc(C4(O)COC4)c3)n2)CC1 [Compound 171, 1-(4-((5-fluoro-4-(3-(3-hydroxyoxetan-3-yl)phenyl)pyrimidin-2-yl)amino)piperidin-1-yl)ethan-1-one]"
5,> 6.30,"CC(=O)N1CCC(Nc2ncc(F)c(-c3ccnc(C(C)(C)O)c3)n2)CC1 [Compound 172, 1-(4-((5-fluoro-4-(2-(2-hydroxypropan-2-yl)pyridin-4-yl)pyrimidin-2-yl)amino)piperidin-1-yl)ethan-1-one]"
6,> 6.30,"CC(=O)N[C@H]1CC[C@H](Nc2ncc(F)c(-c3cccc(C4CCCN(C(C)=O)C4)c3)n2)CC1 (stereo partly drawn) [Compound 174, trans-N-(4-((4-(3-(1-acetylpiperidin-3-yl)phenyl)-5-fluoropyrimidin-2-yl)amino)cyclohexyl)acetamide]"
7,> 6.30,"CC(=O)N[C@H]1CC[C@H](Nc2ncc(F)c(-c3cccc(C4COC4)c3)n2)CC1 [Compound 175, N-(trans-4-((5-fluoro-4-(3-(oxetan-3-yl)phenyl)pyrimidin-2-yl)amino)cyclohexyl)acetamide]"
8,> 6.30,"CC(=O)N[C@H]1CC[C@H](Nc2ncc(F)c(-c3cccc(C4(O)COC4)c3)n2)CC1 [Compound 176, N-(trans-4-((5-fluoro-4-(3-(3-hydroxyoxetan-3-yl)phenyl)pyrimidin-2-yl)amino)cyclohexyl)acetamide]"
9,> 6.30,"CC(=O)N1CCC(Nc2ncc(F)c(-c3cccc(C4CCCN(C(C)=O)C4)c3)n2)CC1 (centres unmarked) [Compound 179, 1-(4-((4-(3-(1-acetylpiperidin-3-yl)phenyl)-5-fluoropyrimidin-2-yl)amino)piperidin-1-yl)ethan-1-one]"
10,> 6.30,"NC(=O)[C@H]1CC[C@H](Nc2ncc(F)c(-c3cccc(C4COC4)c3)n2)CC1 [Compound 180, trans-4-((5-fluoro-4-(3-(oxetan-3-yl)phenyl)pyrimidin-2-yl)amino)cyclohexane-1-carboxamide]"
11,> 6.30,"NC(=O)[C@H]1CC[C@H](Nc2ncc(F)c(-c3cccc(C4(O)COC4)c3)n2)CC1 [Compound 181, trans-4-((5-fluoro-4-(3-(3-hydroxyoxetan-3-yl)phenyl)pyrimidin-2-yl)amino)cyclohexane-1-carboxamide]"

# Source: US20260355196A1, “INHIBITORS AND DEGRADERS OF PIP4K PROTEIN” (Larkspur Biosciences, Inc., priority 2023, published 2026)
